Data published in ChEMBL document CHEMBL6109155, “Discovery of Phenylacylpiperidine as Novel sEH Inhibitors through Scaffold Hopping of Natural Stilbene” (J Med Chem, 2025).
Activity calls are given as the source filed them. No cut-off for these calls is given here.

How the values were obtained:
[1] = test system: Mus musculus; assay: Effect on ratio of 5,6-EET to DHET plasma levels in BALB/c mouse model of carrageenan-induced paw edema at 10 mg/kg, po measured after 6 hrs; assay type: functional, organism-based
[2] = Volume of distribution in Sprague-Dawley rat at 20 mg/kg, po measured for 24 hrs; assay type: ADME, organism-based; conditions: in vivo
[3] = target: T1, Cytochrome P450 1A2 (Homo sapiens, UniProt P05177); assay: Inhibition of CYP1A2 in human liver microsomes preincubated for 10 mins followed by NADPH addition measured after 3.5 mins by LC-MS/MS analysis; assay type: ADME, Microsome
T1 sequence (P05177 whole entry): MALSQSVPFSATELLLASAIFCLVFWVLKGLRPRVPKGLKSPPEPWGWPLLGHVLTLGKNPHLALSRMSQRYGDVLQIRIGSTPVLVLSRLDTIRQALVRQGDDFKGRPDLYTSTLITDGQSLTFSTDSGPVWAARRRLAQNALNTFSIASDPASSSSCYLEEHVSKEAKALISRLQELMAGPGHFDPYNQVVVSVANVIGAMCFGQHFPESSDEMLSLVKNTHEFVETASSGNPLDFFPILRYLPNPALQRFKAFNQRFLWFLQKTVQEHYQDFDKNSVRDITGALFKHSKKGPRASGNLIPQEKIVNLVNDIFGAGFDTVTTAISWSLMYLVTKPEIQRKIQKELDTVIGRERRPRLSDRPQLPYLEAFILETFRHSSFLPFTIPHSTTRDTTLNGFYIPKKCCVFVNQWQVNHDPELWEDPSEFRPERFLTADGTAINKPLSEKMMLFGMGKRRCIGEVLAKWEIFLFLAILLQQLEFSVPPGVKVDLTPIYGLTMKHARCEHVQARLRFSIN

[4] = test system: Rattus norvegicus; assay: Anti-inflammatory activity in Sprague-Dawley rat model of CFA-induced rheumatoid arthritis assessed as decrease in swelling degree of right paw at 10 mg/kg, po administered daily measured after 4 days; assay type: functional, organism-based; conditions: time 4.0 day
[5] = target: Cytochrome P450 2D6 (Homo sapiens, UniProt P10635); assay: Inhibition of CYP2D6 in human liver microsomes preincubated for 10 mins followed by NADPH addition measured after 3.5 mins by LC-MS/MS analysis; assay type: ADME, Microsome
Cytochrome P450 2D6, sequence (P10635 whole entry): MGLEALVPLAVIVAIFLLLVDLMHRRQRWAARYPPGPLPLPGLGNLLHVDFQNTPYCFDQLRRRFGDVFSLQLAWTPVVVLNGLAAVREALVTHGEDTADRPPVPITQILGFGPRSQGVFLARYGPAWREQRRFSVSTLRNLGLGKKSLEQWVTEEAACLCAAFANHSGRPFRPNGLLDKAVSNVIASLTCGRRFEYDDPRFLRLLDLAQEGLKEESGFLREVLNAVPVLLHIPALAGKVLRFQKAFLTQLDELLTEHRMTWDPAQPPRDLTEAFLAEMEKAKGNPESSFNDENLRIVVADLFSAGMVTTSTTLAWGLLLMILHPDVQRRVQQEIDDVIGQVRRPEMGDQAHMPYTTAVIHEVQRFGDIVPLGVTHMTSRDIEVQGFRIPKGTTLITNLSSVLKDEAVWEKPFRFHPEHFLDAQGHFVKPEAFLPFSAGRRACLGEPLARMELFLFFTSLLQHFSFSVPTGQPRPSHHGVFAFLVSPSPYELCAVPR

[6] = test system: Rattus norvegicus; assay: Anti-inflammatory activity in Sprague-Dawley rat model of CFA-induced rheumatoid arthritis assessed as improvement in joint cavity at 10 mg/kg, po administered daily measured after 19 days by H and E staining based analysis; assay type: functional, organism-based; conditions: time 19.0 day
[7] = Ratio of AUC (0 to 24 hrs) in kidney to plasma in C57BL/6J mouse at 20 mg/kg, po measured for 24 hrs; assay type: ADME, organism-based; conditions: kidney and plasma, read-out: Ratio AUC
[8] = test system: Rattus norvegicus; assay: Anti-inflammatory activity in Sprague-Dawley rat model of CFA-induced rheumatoid arthritis assessed as BS value at 10 mg/kg, po administered daily measured after 19 days by micro-CT analysis (reference value: 636.014 mm2); assay type: functional; conditions: time 19 day
[9] = test system: Rattus norvegicus; assay: Anti-inflammatory activity in Sprague-Dawley rat model of CFA-induced rheumatoid arthritis assessed as increase in plasma 8,9-EET level at 10 mg/kg, po administered daily measured after 19 days relative to control; assay type: functional; conditions: time 19 day
[10] = target: Cytochrome P450 2C19 (Homo sapiens, UniProt P33261); assay: Inhibition of CYP2C19 in human liver microsomes preincubated for 10 mins followed by NADPH addition measured after 3.5 mins by LC-MS/MS analysis; assay type: ADME, Microsome
Cytochrome P450 2C19, sequence (P33261 whole entry): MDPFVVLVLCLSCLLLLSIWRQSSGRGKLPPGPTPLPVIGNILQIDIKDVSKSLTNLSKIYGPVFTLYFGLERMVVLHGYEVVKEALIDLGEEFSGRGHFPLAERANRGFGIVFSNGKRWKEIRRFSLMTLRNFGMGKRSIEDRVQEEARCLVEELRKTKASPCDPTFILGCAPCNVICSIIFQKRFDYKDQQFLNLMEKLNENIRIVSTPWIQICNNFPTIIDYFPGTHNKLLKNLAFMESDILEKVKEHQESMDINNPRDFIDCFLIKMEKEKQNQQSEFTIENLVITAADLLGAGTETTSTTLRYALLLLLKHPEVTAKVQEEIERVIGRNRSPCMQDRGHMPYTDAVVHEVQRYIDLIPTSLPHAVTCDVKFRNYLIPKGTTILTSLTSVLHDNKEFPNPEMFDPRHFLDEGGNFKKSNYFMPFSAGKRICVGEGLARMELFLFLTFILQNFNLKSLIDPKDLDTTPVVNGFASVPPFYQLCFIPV

[11] = Volume of distribution in Sprague-Dawley rat at 5 mg/kg, iv measured for 24 hrs; assay type: ADME, organism-based; conditions: in vivo
[12] = test system: Mus musculus; assay: Anti-inflammatory activity in BALB/c mouse model of carrageenan-induced paw edema assessed as inhibition of paw swelling at 10 mg/kg, po measured up to 6 hrs relative to control; assay type: functional; conditions: Mus musculus, BALB/c
[13] = test system: Rattus norvegicus; assay: Anti-inflammatory activity in Sprague-Dawley rat model of CFA-induced rheumatoid arthritis assessed as improvement in chondrocytes morphology at 10 mg/kg, po administered daily measured after 19 days by H and E staining based analysis; assay type: functional, organism-based; conditions: time 19.0 day
[14] = test system: Mus musculus; assay: Anti-inflammatory activity in BALB/c mouse model of carrageenan-induced paw edema assessed as inhibition of paw swelling at 1 mg/kg, po measured after 6 hrs relative to control; assay type: functional
[15] = test system: Rattus norvegicus; assay: Anti-inflammatory activity in Sprague-Dawley rat model of CFA-induced rheumatoid arthritis assessed as TV value at 10 mg/kg, po administered daily measured after 19 days by micro-CT analysis (reference value: 92.617 mm3); assay type: functional; conditions: time 19 day
[16] = In vivo inhibition of liver sEH enzyme activity in Sprague-Dawley rat model of CFA-induced rheumatoid arthritis at 10 mg/kg, po administered daily measured after 19 days relative to control; assay type: functional; conditions: 456 h, time 19 day
[17] = target: T2, Bifunctional epoxide hydrolase 2 (Mus musculus, UniProt P34914); assay: biochemical
T2 sequence (P34914 whole entry): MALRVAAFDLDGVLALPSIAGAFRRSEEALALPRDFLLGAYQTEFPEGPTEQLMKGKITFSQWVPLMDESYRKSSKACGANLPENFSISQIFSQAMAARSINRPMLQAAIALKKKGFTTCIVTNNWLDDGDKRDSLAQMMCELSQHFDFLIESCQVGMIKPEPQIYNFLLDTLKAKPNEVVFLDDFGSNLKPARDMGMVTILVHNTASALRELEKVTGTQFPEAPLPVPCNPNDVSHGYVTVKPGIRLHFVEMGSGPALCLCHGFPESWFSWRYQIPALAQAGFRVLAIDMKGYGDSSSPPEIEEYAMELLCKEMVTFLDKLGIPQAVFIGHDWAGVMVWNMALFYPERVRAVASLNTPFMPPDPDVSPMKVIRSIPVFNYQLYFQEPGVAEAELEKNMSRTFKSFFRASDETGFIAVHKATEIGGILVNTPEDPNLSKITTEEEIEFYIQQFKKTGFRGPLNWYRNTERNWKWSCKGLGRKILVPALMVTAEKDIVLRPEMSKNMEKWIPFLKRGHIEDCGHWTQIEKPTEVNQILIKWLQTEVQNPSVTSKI
Description: Inhibition of C57BL/6J mouse brain sEH using 14,15-EET as substrate preincubated for 15 mins followed by substrate addition by HPLC-MS analysis

[18] = target: Cytochrome P450 3A4 (Homo sapiens, UniProt P08684); assay: Inhibition of CYP3A4 in human liver microsomes preincubated for 10 mins followed by NADPH addition measured after 3.5 mins by LC-MS/MS analysis; assay type: ADME, Microsome
Cytochrome P450 3A4, sequence (P08684 whole entry): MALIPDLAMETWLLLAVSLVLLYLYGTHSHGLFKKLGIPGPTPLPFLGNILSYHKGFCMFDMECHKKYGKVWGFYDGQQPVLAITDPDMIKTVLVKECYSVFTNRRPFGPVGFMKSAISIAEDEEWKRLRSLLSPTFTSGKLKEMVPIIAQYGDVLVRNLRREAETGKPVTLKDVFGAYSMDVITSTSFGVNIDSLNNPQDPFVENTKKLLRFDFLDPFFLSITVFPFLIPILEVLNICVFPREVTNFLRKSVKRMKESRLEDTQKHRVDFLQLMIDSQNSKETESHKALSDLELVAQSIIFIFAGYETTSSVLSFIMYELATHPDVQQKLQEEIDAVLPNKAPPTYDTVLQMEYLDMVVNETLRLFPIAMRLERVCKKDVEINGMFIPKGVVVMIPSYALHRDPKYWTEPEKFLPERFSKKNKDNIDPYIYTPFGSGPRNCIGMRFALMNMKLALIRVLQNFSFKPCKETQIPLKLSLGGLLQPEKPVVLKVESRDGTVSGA

[19] = Half life in Sprague-Dawley rat at 20 mg/kg, po measured for 24 hrs; assay type: ADME, organism-based; conditions: in vivo
[20] = test system: Mus musculus; assay: Anti-inflammatory activity in BALB/c mouse model of carrageenan-induced paw edema assessed as decrease in plasma 8,9-DHET levels at 10 mg/kg, po measured after 6 hrs relative to control; assay type: functional; set-up: scale not given: the % may be the effect or the level left
[21] = test system: Rattus norvegicus; assay: Anti-inflammatory activity in Sprague-Dawley rat model of CFA-induced rheumatoid arthritis assessed as reduction in hyperplasia in synovial tissue at 10 mg/kg, po administered daily measured after 19 days by H and E staining based analysis; assay type: functional, organism-based; conditions: time 19.0 day
[22] = Cmax in kidney of C57BL/6J mouse at 20 mg/kg, po measured for 24 hrs; assay type: ADME, organism-based
[23] = AUC (0 to 24 hrs) in kidney of C57BL/6J mouse at 20 mg/kg, po measured for 24 hrs; assay type: ADME, organism-based

Vd [2]: 74.6 L/kg
IC50 [3]: > 50 µM
IC50 [5]: 46.8 µM
Kp at 24 h [7]: 32.4
IC50 [10]: 9.5 µM
Vd [11]: 1.39 L/kg
IC50 [17]: 0.00051 µM
IC50 [18]: 22.9 µM
half-life [19]: 1.89 h
Cmax [22]: 4540 ng/g
AUC(0-t) at 24 h [23]: 17200 ng·h/mL
SMILES: COc1cc(CC(=O)N2CCC(NC(=O)NCc3ccc(OC(F)(F)F)cc3)CC2)cc(OC)c1
Activity [1]: No effect
Activity [4]: Active
Activity [6]: Active
Activity [8]: 432.009 mm2
Activity [9]: 105%
inhibition in vivo at 10 mg/kg [12]: 38.8%
Activity [13]: Active
inhibition in vivo at 1 mg/kg [14]: 22%
Activity [15]: 57.762 mm3
inhibition in vivo at 10 mg/kg [16]: 24.7%
Activity [20]: 70.3%
Activity [21]: Active; Mild Hyperplasia Was Observed
